For one test, the target named is Cdk5/p25 (Homo sapiens, UniProt Q00535). The test can be described thus: FRET-based Z'-LYTE Cdk5 kinase assay, Cdk5/p25. Format: biochemical. As to conditions: for IC50: Cdk5/p25, Table 1; for mode of inhibition on Cdk5/p25 complex: 0.5, 1, 2 and 4 μM, increasing ATP, FIG. 11; for inhibitory effect on Cdk5/p25: FIG. 8-10, in words; for inhibition at 30 µM: compound 30 μM, 30 ng/ml Cdk5/p25, FIG. 3; for inhibition at 200 µM: Cdk5/p25, at 200 μM; for inhibition at 80 µM: Cdk5/p25, at 80 μM. The procedure: (§1) Cdk5 kinase assay was performed as described in the instruction manual (Invitrogen, cat. no. PV3673). This assay employs a FRET-based, coupled-enzyme format and is based on the differential sensitivity of phosphorylated and non-phosphorylated peptides to proteolytic cleavage. The assay uses a synthetic peptide substrate (the Z′-LYTE™ peptide substrate) that is labeled with a donor fluorophore (coumarin) and an acceptor fluorophore (fluorescein) to make up a FRET pair. In the primary reaction, Cdk5 transfers the γ-phosphate of ATP to a serine/threonine residue on the substrate, while the presence of a kinase inhibitor in the primary reaction suppresses phosphorylation. […] Cleavage disrupts FRET between the donor and acceptor fluorophores on the non-phosphorylated substrate, while uncleaved phosphorylated substrate maintains FRET. The effectiveness of the compounds on inhibiting the Cdk5 activity is then measured by calculating the emission ratio.
(§2) The plate was then incubated for one hour at room temperature. Development solution was then added in the dark for another hour. […] To calculate the activity of cdk5/p25 and Cdk5/p35, Z′-LYTE phosphopeptide was used as a 100% phosphorylation control while nonphosphorylated Z′-LYTE peptide is used as a 0% phosphorylation control to establish the maximal and minimal emission ratio values which enable to calculate the percentage of kinase phosphorylation. To determine the inhibitory effect on cdk5 activity, fractions and compounds to be tested were included in the kinase reaction. Zero inhibition was determined by using DMSO (solvent) instead of the compounds in the reaction. […] Assays were done in quadruplicates and data was averaged from at least 4 independent experiments. Similar experimental protocols were performed for Cdk1/cyclin B and Cdk2/cyclin A kinase activity study. Activity of each kinase complex was evaluated by titration, and the resultant value of EC30 was used in the inhibitory study. Since activity of kinase complexes varies with different batches of preparation, EC30 will be determined in each new batch of kinases. […] Kinetic studies of compounds were performed by Cdk5/p25 kinase assays with various concentrations of ATP and tested compounds. The kinetic parameters were determined by a nonlinear least-squares program using GraphPad Prism 5 software.
(§3) Using the FRET-based Cdk5 kinase assay method described above, the compounds of the present invention were examined for their inhibitory effects on Cdk5 kinase activity. The amount of Cdk5/25 and Cdk5/p35 used for screening Cdk5 inhibitors is EC30 of the kinase complex and the EC30 was determined with a titration study of kinase complex. The effectiveness of the compounds on inhibiting Cdk5 activity was then measured by comparing the percent phosphorylation of peptide substrates by Cdk5 kinase in the presence of test compounds and percent phosphorylation of peptide substrates by Cdk5 without test compounds.
Seven natural compounds isolated from Rhodiola rosea (F199) were selected for IC50 and maximal inhibition determination. Various concentrations of the F199 compounds were incubated with Cdk5/p25. The effectiveness of the compounds on inhibiting Cdk5 activity was then calculated by comparing the percent phosphorylation of peptide substrates by Cdk5/p25 in the presence of test compounds and percent phosphorylation of peptide substrates by Cdk5/p25 without test compounds.

The next test deals with Cdk5/p35 (Homo sapiens, UniProt Q00535). The test can be described thus: FRET-based Z'-LYTE Cdk5 kinase assay, Cdk5/p35. Format: biochemical. The conditions noted are these: for inhibitory effect on Cdk5/p35: FIG. 8-10, in words; for inhibition at 30 µM: compound 30 μM, 30 ng/ml Cdk5/p35, FIG. 3. As to the method: as §1, §2, §3
In the next test the target is Cdk1/cyclin B (Homo sapiens, UniProt P06493). The experiment in a line: Z'-LYTE kinase assay, Cdk1/cyclin B. Format: biochemical. The conditions noted are these: FIG. 8-10, in words. The procedure:
(§4) Cdk5 kinase assay was performed by adding Z′-LYTE™ peptide substrate and ATP together with Cdk5/p25 or Cdk5/p35 kinase solution in a 384-well black polystyrene plate (Corning 3676). The plate was then incubated for one hour at room temperature. Development solution was then added in the dark for another hour. Finally, stop solution was added and the coumarin and fluorescein emission signals were measured on a fluorescence plate reader (Tecan, infinite F500) (excitation: 400 nm, emission 445 and […], respectively). To calculate the activity of cdk5/p25 and Cdk5/p35, Z′-LYTE phosphopeptide was used as a 100% phosphorylation control while nonphosphorylated Z′-LYTE peptide is used as a 0% phosphorylation control to establish the maximal and minimal emission ratio values which enable to calculate the percentage of kinase phosphorylation. To determine the inhibitory effect on cdk5 activity, fractions and compounds to be tested were included in the kinase reaction. Zero inhibition was determined by using DMSO (solvent) instead of the compounds in the reaction. […]. Assays were done in quadruplicates and data was averaged from at least 4 independent experiments. Similar experimental protocols were performed for Cdk1/cyclin B and Cdk2/cyclin A kinase activity study. Activity of each kinase complex was evaluated by titration, and the resultant value of EC30 was used in the inhibitory study. Since activity of kinase complexes varies with different batches of preparation, EC30 will be determined in each new batch of kinases. […] Kinetic studies of compounds were performed by Cdk5/p25 kinase assays with various concentrations of ATP and tested compounds. The kinetic parameters were determined by a nonlinear least-squares program using GraphPad Prism 5 software.

The target in another test is Cdk2/cyclin A (Homo sapiens, UniProt P24941). The test can be described thus: Z'-LYTE kinase assay, Cdk2/cyclin A. As to conditions: FIG. 8-10, in words. Format: biochemical. The procedure:
as §4

The next test deals with Cdk5 (Homo sapiens, UniProt Q00535). As to conditions: reported elsewhere, controls; cited from earlier work.
In the next test the test system is rat cortical neurons. The experiment in a line: Aβ assay (MTT) in cortical neurons. Format: cell-based. As to conditions: about 30 and 50 μM, Aβ25-35 10 μM, vs DMSO control. The procedure:
Embryonic rat cortical neurons (7 DIV) were pre-treated with various concentrations of compounds (3-50 μM) and then co-incubated with Aβ25-35 (10 μM). After overnight incubation, the MTT assay was performed. Cell survival was calculated as a percentage compared to the vehicle control (DMSO). Assays were conducted in duplicates and data were compared with student-t test. *=P<0.05.
Cortical neurons at 7 DIV in culture isolated from embryonic day 18 rats were used as cell models in the assay. Toxicity caused by Aβ25-35 peptide in these cells was evaluated by MTT detection after […]. The Aβ assay was performed to investigate the ability of the invention to protect cortical neurons from cell death induced by exogenous Aβ25-35 peptide addition. Assays were done in duplicates and data was averaged from at least 3 independent experiments.
Exogenous addition of Aβ initiates cell death of neuronal cultures via apoptosis. The MTT assay, a well-known cell death assay, was performed to study the ability of the compounds of the present invention to prevent Aβ-induced excitotoxicity in primary cortical neuronal cells. Embryonic rat cortical neurons (7 DIV) were pre-treated with various concentrations of the compounds (3-50 μM) and then co-incubated with Aβ25-35 (10 μM). After overnight incubation, the MTT assay was performed. Cell survival was calculated as a percentage compared to the vehicle control (DMSO). Assays were conducted in duplicates and data were analyzed with student-t test. *=P<0.05. The results of exemplary compounds, F199-C6, F199-C34 and F199-C22 are presented in FIG. 5, FIG. 6 and FIG. 7, respectively.

For another test, the system named is formalin-induced pain. The test can be described thus: Animal model of pain (formalin paw-licking). Format: in vivo, mice. The procedure:
Adult ICR mice (6-8 week-old) habituated in the experimental room for 3 days before the testing. Testing was conducted from 9 am to 3 pm. Mice were randomly grouped and weighed. Mice were pretreated with a single dose of F199-C16 (10-100 mg/kg, intraperitoneal injection) and then injected with 10 μl of 2.5% formalin in the subplantar of the right hind paw. The licking time (in seconds) was recorded during 0-10 minutes (early phase) and in 11-40 minutes (late phase) after formalin injection. The whole process was monitored and recorded by a digital monochrome video camera. Data were expressed as the mean±SEM. (*p<0.05; ANOVA, with Student-Newman Keuls test).
The effect of F199-C16 was examined in an animal model of pain. The pain was induced by injecting formalin into the paw of the mouse.

Some results are limits rather than exact numbers.

Sequence of Cdk5/p25 (Q00535 whole entry, species assumed): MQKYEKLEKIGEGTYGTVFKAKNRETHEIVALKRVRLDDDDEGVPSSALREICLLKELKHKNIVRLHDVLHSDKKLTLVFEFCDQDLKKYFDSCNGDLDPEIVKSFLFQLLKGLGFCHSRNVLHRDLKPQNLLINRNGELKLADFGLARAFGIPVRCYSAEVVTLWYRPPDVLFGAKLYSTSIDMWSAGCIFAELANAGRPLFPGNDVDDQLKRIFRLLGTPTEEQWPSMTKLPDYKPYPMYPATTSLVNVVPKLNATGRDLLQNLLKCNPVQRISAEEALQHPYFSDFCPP
Sequence of Cdk5/p25 (Q15078 99-307 partner limits assumed, species assumed): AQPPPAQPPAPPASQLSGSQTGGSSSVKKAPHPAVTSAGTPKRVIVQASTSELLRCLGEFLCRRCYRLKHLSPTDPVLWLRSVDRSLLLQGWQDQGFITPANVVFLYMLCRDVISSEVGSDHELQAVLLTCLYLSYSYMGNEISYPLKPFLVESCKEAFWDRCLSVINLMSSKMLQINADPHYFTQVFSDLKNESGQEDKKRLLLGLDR
Sequence of Cdk5/p35 (Q00535 whole entry, species assumed): as the sequence (Q00535 whole entry, species assumed) above
Sequence of Cdk5/p35 (Q15078 whole entry partner, species assumed): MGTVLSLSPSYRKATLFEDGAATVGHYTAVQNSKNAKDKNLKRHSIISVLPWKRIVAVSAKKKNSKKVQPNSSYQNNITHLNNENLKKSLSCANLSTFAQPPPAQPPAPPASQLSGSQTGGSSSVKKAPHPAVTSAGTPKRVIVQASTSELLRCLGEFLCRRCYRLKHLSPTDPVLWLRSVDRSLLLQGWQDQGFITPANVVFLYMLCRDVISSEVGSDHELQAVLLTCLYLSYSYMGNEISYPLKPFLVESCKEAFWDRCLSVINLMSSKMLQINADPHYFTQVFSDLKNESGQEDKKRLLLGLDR
Sequence of Cdk1/cyclin B (P06493 whole entry, species assumed): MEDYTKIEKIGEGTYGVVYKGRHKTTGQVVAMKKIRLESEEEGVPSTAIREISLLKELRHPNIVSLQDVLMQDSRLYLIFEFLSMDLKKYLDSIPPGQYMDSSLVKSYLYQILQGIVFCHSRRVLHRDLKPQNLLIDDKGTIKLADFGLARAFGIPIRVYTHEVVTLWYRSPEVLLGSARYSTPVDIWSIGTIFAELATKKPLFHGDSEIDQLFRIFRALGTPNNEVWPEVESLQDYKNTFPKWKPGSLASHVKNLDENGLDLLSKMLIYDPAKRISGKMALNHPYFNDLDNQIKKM
Sequence of Cdk1/cyclin B (P14635 whole entry partner, species assumed): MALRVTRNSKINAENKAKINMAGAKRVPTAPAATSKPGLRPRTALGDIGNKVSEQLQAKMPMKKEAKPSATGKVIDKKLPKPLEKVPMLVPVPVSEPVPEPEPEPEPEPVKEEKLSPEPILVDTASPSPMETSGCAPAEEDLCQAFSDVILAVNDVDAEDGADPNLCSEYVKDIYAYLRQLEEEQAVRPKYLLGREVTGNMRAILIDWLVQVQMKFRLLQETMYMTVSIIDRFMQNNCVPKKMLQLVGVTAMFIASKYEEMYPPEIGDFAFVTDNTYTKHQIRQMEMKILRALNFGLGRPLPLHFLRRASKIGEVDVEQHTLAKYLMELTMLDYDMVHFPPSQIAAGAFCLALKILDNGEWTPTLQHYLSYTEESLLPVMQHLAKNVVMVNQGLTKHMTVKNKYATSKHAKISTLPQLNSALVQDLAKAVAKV
Sequence of Cdk5 (Q00535 whole entry, species assumed): as the sequence (Q00535 whole entry, species assumed) above
Sequence of Cdk5 (Q15078 whole entry partner, species assumed): as the sequence (Q15078 whole entry partner, species assumed) above

The IC50 is the point on the concentration scale where inhibition reaches its midpoint. Lower therefore signals inhibition by little substance. Compound `O=C(O[C@@H]1Cc2c(O)cc(O)cc2O[C@@H]1c1cc(O)c(O)c(O)c1)c1cc(O)c(O)c(O)c1` [Compound F199-C35, epigallocatechin-3-gallate] returned a 50% inhibitory concentration (IC50) against Cdk5/p25 of 14.7 µM.

As a reminder, the inhibition is how much of the control response was suppressed. As to `COc1ccc(-c2oc3c(O)c(O)cc(O)c3c(=O)c2O)cc1` [Compound F199-C23, 4′-methoxyherbacetin], at Cdk5/p25, the “mode of inhibition on Cdk5/p25 complex” value was “mixed inhibition”, half-maximal inhibition (IC50) required 1.21 µM, the “inhibitory effect on Cdk5/p25” value was “inhibited similarly” and the inhibition at 30 µM lay within 50 to 75%. Further, the inhibition at 20 µM on Cdk5/p25 (Cdk5/p25, at 20 μM, read-out: Maximum inhibition) stood at 45%. In addition, on Cdk5/p35, the “inhibitory effect on Cdk5/p35” value was “inhibited similarly” and the inhibition at 30 µM was in the range of 50 to 75%. In addition, the “inhibitory effect on Cdk1/cyclin B” value on Cdk1/cyclin B is reported as “inhibited similarly”. Further, the “inhibitory effect on Cdk2/cyclin A” value at Cdk2/cyclin A is “minimal”.

In the case of `CC[C@H](CC[C@@H](C)[C@H]1CC[C@H]2[C@@H]3CC=C4C[C@@H](O[C@@H]5O[C@H](CO)[C@@H](O)[C@H](O)[C@H]5O)CC[C@]4(C)[C@H]3CC[C@]12C)C(C)C` [Compound F199-C1, daucosterol, reference compound], the inhibition at 30 µM against Cdk5/p25 and against Cdk5/p35 was below 25% in each case. In addition, the “reported inhibition of Cdk5 activity” value on Cdk5 is recorded as “moderately inhibit Cdk5 activity”.

At Cdk5/p25, `O=C(O)c1cc(O)c(O)c(O)c1` [Compound F199-C4, gallic acid] showed an IC50 of 40.6 µM and an inhibition at 30 µM of 25 to 50%. For the same compound, the inhibition at 200 µM at Cdk5/p25 (read-out: Maximum inhibition) was 64.2%. In addition, the inhibition at 30 µM at Cdk5/p35 lay in the range of 25 to 50%.

On to `O=C(OCC1OC(Oc2ccc(O)cc2)C(O)C(O)C1O)c1cc(O)c(O)c(O)c1` (stereo not shown) [Compound F199-C34, 6-O-galloyl arbutin], for which, at Cdk5/p25, half-maximal inhibition (IC50) required 5.63 µM, the “inhibitory effect on Cdk5/p25” value is given as “potent inhibitory effect” and the inhibition at 30 µM lay in the range of 50 to 75%. The inhibition at 80 µM on Cdk5/p25 (read-out: Maximum inhibition) amounted to 70%. At Cdk5/p35, the “inhibitory effect on Cdk5/p35” value is listed as “less effect” and the inhibition at 30 µM lay within 50 to 75%. Also, on Cdk1/cyclin B, the “inhibitory effect on Cdk1/cyclin B” value is on record as “less effect”. Also, on Cdk2/cyclin A, the “inhibitory effect on Cdk2/cyclin A” value is “less effect”. Moreover, the “neuronal cell survival against Aβ toxicity” value (“neuronal cell survival” below) in the test with rat cortical neurons is given as “significantly promoted neuronal cell survival”.

Take `O=c1c(O)c(-c2ccc(O)cc2)oc2cc(O)cc(O)c12` [Compound F199-C2, kaempferol]: the “reported inhibition of Cdk5 activity” value at Cdk5 is on record as “moderately inhibit Cdk5 activity”.

Take `O=c1c(O)c(-c2ccc(O)cc2)oc2c(OC3OCC(O)C(O)C3O)c(O)cc(O)c12` (stereo not shown) [Compound F199-C6, rhodalin]: on Cdk5/p25, it took 34.4 µM to reach half-maximal inhibition (IC50) and the inhibition at 30 µM lay in the range of 25 to 50%. For the same compound, the inhibition at 200 µM on Cdk5/p25 (read-out: Maximum inhibition) came to 56.6%. On Cdk5/p35, this compound returned an inhibition at 30 µM of 25 to 50%. For the same compound, the “neuronal cell survival” value in the test on rat cortical neurons was “significantly promoted neuronal cell survival”.

`CC1OC(Oc2c(O)cc(O)c3c(=O)c(O)c(-c4ccc(O)cc4)oc23)C(O)C(O)C1O` (stereo not shown) [Compound F199-C16, litvinolin]: on Cdk5/p25, the “mode of inhibition on Cdk5/p25 complex” value was “mixed inhibition”, inhibition was half-maximal at 3.24 µM (IC50), the “inhibitory effect on Cdk5/p25” value is recorded as “milder inhibition” and the inhibition at 30 µM was 50 to 75%. Moreover, the inhibition at 200 µM on Cdk5/p25 (read-out: Maximum inhibition) stood at 87.5%. At Cdk5/p35, the “inhibitory effect on Cdk5/p35” value was “milder inhibition” and the inhibition at 30 µM fell in the range of 50 to 75%. Besides, the “inhibitory effect on Cdk1/cyclin B” value against Cdk1/cyclin B is recorded as “potently”. In addition, the “inhibitory effect on Cdk2/cyclin A” value at Cdk2/cyclin A is given as “minimal”. In addition, in the test with formalin-induced pain (100 mg/kg i.p.), the “licking time, early phase (0-10 min)” value is reported as “significantly reduced the licking time” and the “licking time, late phase (11-40 min)” value is listed as “significantly reduced the licking time”. In the test with formalin-induced pain (10-100 mg/kg i.p., single dose, formalin), the “licking time of right hind paw” value was “reduced the licking time of right hind paw in a dose-dependent manner”.

Turning to `O=C(OCC1OC(OC/C=C/c2ccccc2)C(O)C(O)C1O)c1cc(O)c(O)c(O)c1` (stereo not shown) [Compound F199-C22, 6-O-galloyl rosin], it took 20.1 µM to reach half-maximal inhibition at Cdk5/p25 (IC50). Moreover, the inhibition at 80 µM on Cdk5/p25 (read-out: Maximum inhibition) was 46.5%. Moreover, the inhibition at 30 µM against Cdk5/p25 and at Cdk5/p35 was below 25% in each case. In addition, the “neuronal cell survival” value in the test on rat cortical neurons is recorded as “significantly promoted neuronal cell survival”.

(Values after US9629863B2, “CDK5 inhibitors and therapeutic uses thereof” (The Hong Kong University of Science and Technology, priority 2009, dated 2017).)
